In paper PMC7583830 (Molecules, 2020):
“And” between values parts separate entries of the source, which are not always exact repeats. Identical values can stand only once. Where a SMILES comes first, the peptide text is derived from it. [ ]: non-standard residue; d: D form. The star is where a group is joined. DOTA = O=C(O)CN1CCN(CC(=O)O)CCN(CC(=O)*)CCN(CC(=O)O)CC1; 1Nal = N[C@@H](Cc1cccc2ccccc12)C(=O)O; NMeNle = CCCC[C@H](NC)C(=O)O

Assays:
[1] = Stability in rat kidney homogenate; type: in vitro ADME
Method: (§1) In vitro stability studies for the characterization of the metabolic stability of the radiolabeled peptide analogs in human serum were carried out with [^177Lu]Lu-1, [^177Lu]Lu-M1, [^177Lu]Lu-M2, [^177Lu]Lu-M3 and [^177Lu]Lu-M4 (n = 2). Additional stability studies in rat liver and kidney homogenates were performed for [^177Lu]Lu-1 (n = 2). Tissue homogenates were prepared from dissected organs by homogenization for 1 min at RT (IKA-Werke, Staufen, Germany) in 20 mM HEPES buffer pH 7.3 (30% v/v). The radioligands were incubated in the different media at a concentration of 500 pmol/mL (corresponding to an activity of 6–11 MBq). After incubation at 37 °C at different time points for up to 24 h, a 100 µl sample was taken in duplicates and analyzed by HPLC. Samples obtained from human serum and rat homogenates were treated with ACN at a ratio of 1:1.5 (v/v) to precipitate proteins, centrifuged (14,000 rpm, 2 min, centrifuge 5424, Eppendorf AG, Germany) and diluted with water at a ratio of 1:1 (v/v). A 100 µl aliquot of this solution was injected into the radio HPLC system. The degradation of the radioligand was evaluated based on the radiochemical purity after radiolabeling and the percentage of intact radiopeptide observed during incubation in the different media.

[2] = Distribution coefficient (logD) in octanol/PBS; type: physicochemical; details: octanol/PBS pH 7.4; read-out: logD
Method: The mixture was vigorously vortexed at room temperature over a period of 15 min using a small shaker (MS3 Basic, IKA, Staufen, Germany) with speed of 1500 rpm.

[3] = Metabolic stability in vivo and radiometabolites (radio-HPLC of blood, urine, liver, kidney); parameters: species or system BALB/c mice
Method: Metabolic biodistribution studies were performed in accordance with the ethical standards of the institution and approved by the Austrian Ministry of Science (BMWFW-66.011/0072-V/3b/2019). These studies were carried out in 5- to 7-week-old female BALB/c mice (n = 3) injected with [^177Lu]Lu-1 via a lateral tail vein. To allow monitoring of the metabolites by radio-HPLC, mice were injected with 30 MBq corresponding to 0.8 nmol total peptide. The mice were euthanized by cervical dislocation after different time points of 10 min, 30 min and 1 h p.i. and the urine and a venous blood sample were collected at the time of sacrifice. Liver and kidneys were dissected and homogenized in 20 mM HEPES buffer pH 7.3 at a ratio of 1:1 (v/v) with an Ultra-Turrax T8 homogenizer (IKA-Werke, Staufen, Germany) for 1 min at RT. Before radio-HPLC analysis, the samples (except urine) were treated with ACN at a ratio of 1:1 (v/v) to precipitate proteins, centrifuged at 2000× g for 2 min and diluted with water at a ratio of 1:1 (v/v). For HPLC analysis of the samples, the analytical HPLC system described above with a flow rate of 1 mL/min was used together with the following optimized water/ACN/0.1% TFA gradient to allow a better separation of [^177Lu]Lu-1 and the different radiometabolites: 0–7 min 1–7% ACN, 7–8 min 7–10% ACN, 8–18 min 10–18% ACN, 18–20 min 18–32% ACN, 20–27 min 32% ACN, 27–37 min […], 37–40 min 80% ACN, 40–40.1 min 80–1% ACN, 40.1–45 min 1% ACN. Urine was measured with the low-sensitivity loop of the radiodetector. The remaining samples were analyzed with the high-sensitivity loop due to the lower radioactivity present in blood, liver and kidney homogenate. To quantify the percentage of intact [^177Lu]Lu-1 and [^177Lu]Lu-M1 showing some overlap in the radiochromatogram when using the high-sensitivity loop of the radiodetector, the two radiopeptides were co-injected at different known ratios to enable a more accurate separation and integration of the two peaks (see supporting Figure S4). Mice from the metabolic biodistribution studies were subjected to a further dissection of all remaining tissues (blood, lung, heart, femur, spleen, muscle, intestine, pancreas and stomach). All organs, also including liver and kidneys, were weighed, and their radioactivity was measured in the gamma counter together with a standard and the residual body. To quantify the uptake of radioactivity in liver and kidneys, a part of liver and kidney homogenate was measured in the gamma counter to extrapolate the radioactivity for the whole organ.

[4] = Stability in rat liver homogenate; type: in vitro ADME
Method: as §1

[5] = Protein binding in human serum by size exclusion chromatography; type: in vitro ADME; details: 24 h incubation
Method: For protein binding assessment, the radiolabeled DOTA-peptides were incubated in fresh human serum at 37 °C (500 pmol/mL, n = 2). After 1, 4 and 24 h of incubation, two samples were taken for each time point and analyzed by Sephadex G-50 size-exclusion chromatography (GE Healthcare Illustra, Little Chalfont, UK). The percentage of protein binding was determined by measuring the column and the eluate with the gamma-counter.

[6] = Stability in fresh human serum (radio-HPLC); type: in vitro ADME; details: 24 h incubation, 37 °C
Method: as §1

CCCC[C@@H](C(=O)N[C@@H](CC(=O)O)C(=O)N[C@@H](Cc1cccc2ccccc12)C(N)=O)N(C)C(=O)[C@H](Cc1c[nH]c2ccccc12)NC(=O)CNC(=O)[C@H](Cc1ccc(O)cc1)NC(=O)[C@@H]1CCCN1C(=O)[C@@H](CCC(=O)O)NC(=O)CN1CCN(CC(=O)O)CCN(CC(=O)O)CCN(CC(=O)O)CC1 [[^177Lu]Lu-1, metal not drawn] ({DOTA}-[dE]PYGW[NMeNle]D[1Nal]-NH2)
intact radiopeptide ([1]; 20 min): 65.6 ± 2.8% | intact radiopeptide ([1]; 30 min): 43.9 ± 1.0% and 44% | intact radiopeptide ([1]; 2 h): < 5% | intact radiopeptide ([1]; 24 h): < 1% | logD [2]: -1.96 ± 0.07 | total amount of radiometabolites ([3]; blood, 10 min p.i.): 19.5% | total amount of radiometabolites ([3]; blood, 30 min p.i.): 35.9% | percentage of intact radiopeptide / radiometabolite ([3]; blood, 30 min p.i., mice injected i.v. with [177Lu]Lu-1): 64.1% | total amount of radiometabolites ([3]; blood, 60 min p.i.): 43.1% | percentage of intact radiopeptide / radiometabolite ([3]; blood, 60 min p.i., mice injected i.v. with [177Lu]Lu-1): 56.9% | percentage of intact radiopeptide / radiometabolite ([3]; kidney homogenate soluble phase, 10 min p.i.): 29.7% | percentage of intact radiopeptide / radiometabolite ([3]; kidney, 30 min p.i.): 18.0% | percentage of intact radiopeptide / radiometabolite ([3]; kidney, 60 min p.i.): 7.0% | intact radiopeptide ([3]; kidneys and urine, studied time points): < 30% | percentage of intact radiopeptide / radiometabolite ([3]; liver homogenate soluble phase, 10 min p.i.): 71.9% | percentage of intact radiopeptide / radiometabolite ([3]; liver, 30 min p.i.): 53.9% | percentage of intact radiopeptide / radiometabolite ([3]; liver, 60 min p.i.): 47.7% | percentage of intact radiopeptide / radiometabolite ([3]; urine, 10 min p.i.): 29.1% and 29% | percentage of intact radiopeptide / radiometabolite ([3]; urine, 30 min p.i.): 19.4% | percentage of intact radiopeptide / radiometabolite ([3]; urine, 60 min p.i.): 18% | intact radiopeptide ([4]; 30 min): 83.6 ± 0.2% and 84% | intact radiopeptide ([4]; 2 h): 52.9 ± 2.0% and > 50% | intact radiopeptide ([4]; 24 h): 49.3 ± 1.7% | intact radiopeptide ([4]; up to 20 min incubation): > 90% | fraction unbound [5]: 0.622 | intact radiopeptide [6]: 96.2 ± 1.3%
